Data published in patent US9555038B2, “Heterocycle-substituted tetracyclic compounds and methods of use thereof for the treatment of viral diseases” (Merck Sharp & Dohme Corp., priority 2013, dated 2017).
Read-outs that look alike come from different tables or passages of the source.

Experiments:
HCV replicon 1A = assay: Cell-based HCV Replicon Assay A, replicon 1A
In short: (§1)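 Three-day exposure of replicon cells (2000/well) to serially diluted compound, 0.5% DMSO, 5% serum. RNA per cell was derived as (Ct − intercept)/slope from replicon total RNA standards, with cyclophilin amplified in the same reaction.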

HCV replicon 1AY93H = assay: Cell-based HCV Replicon Assay A, replicon 1AY93H
In short: as §1

HCV replicon 1B = assay: Cell-based HCV Replicon Assay B, replicon 1B
In short: (§2)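 EC50 defined as the drug concentration giving a CT increase of 1 above projected baseline, from real-time RT-PCR of replicon RNA using genotype-specific primers and probes. Cells were seeded in 5% FBS, dosed after 24 h and incubated 3 days before lysis.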

HCV replicon 2B = assay: Cell-based HCV Replicon Assay A, replicon 2B
In short: as §1

HCV replicon 1AQ30D = assay: Cell-based HCV Replicon Assay B, replicon 1AQ30D
In short: as §2

[1] = read-out: 1A Y93H IC50, replicon 1AY93H
[2] = read-out: 1A Q30D IC50, replicon 1AQ30D
[3] = Hepatitis C virus, read-out: 1A Q30D IC50 (nM), replicon 1AQ30D
[4] = Hepatitis C virus, read-out: 1A Y93H IC50 (nM), replicon 1AY93H
[5] = Hepatitis C virus, read-out: 2B IC50 (nM), replicon 2B

SMILES | IC50 (HCV replicon 1A) [pM] | IC50 (HCV replicon 1AY93H; [1]) [nM] | IC50 (HCV replicon 1B) [pM] | IC50 (HCV replicon 2B; read-out: 2B IC50, replicon 2B) [nM] | IC50 (HCV replicon 1AQ30D; [2]) [nM] | IC50 (HCV replicon 1B; Hepatitis C virus) [pM] | IC50 (HCV replicon 1AQ30D; [3]) [nM] | IC50 (HCV replicon 1A; Hepatitis C virus) [pM] | IC50 (HCV replicon 1AY93H; [4]) [nM] | IC50 (HCV replicon 2B; [5]) [nM] | IC50 (HCV replicon 1AY93H; replicon 1AY93H, read-out: 1A Y93H IC50) [nM] | IC50 (HCV replicon 2B; replicon 2B, read-out: 2B IC50) [nM] | IC50 (HCV replicon 1AQ30D; replicon 1AQ30D, read-out: 1A Q30D IC50) [nM]
COC(=O)NC(C(=O)N1[C@@H]2C[C@@H]2C[C@H]1c1ncc(-c2ccc3c(c2)cc2n3C(c3cnc(C4(C)CCCC4)s3)Oc3cc(-c4cnc([C@@H]5CCCN5C(=O)[C@@H](NC(=O)OC)C(C)C)[nH]4)cc(F)c3-2)[nH]1)C1CCOC(C)(C)C1 (single isomer, unassigned) [Compound 477] | 3.2 | 0.003 | 3.7 | 0.008 | 0.009 |  |  |  |  |  |  |  | 
CCCOCc1ncc(C2Oc3cc(-c4cnc([C@@H]5CCCN5C(=O)[C@@H](NC(=O)OC)C(C)C)[nH]4)cc(F)c3-c3cc4cc(-c5cnc([C@@H]6CCCN6C(=O)[C@@H](NC(=O)OC)C(C)C)[nH]5)ccc4n32)s1 (single isomer, unassigned) [Compound 492] | 2.8 | 0.03 | 2.9 | 0.146 | 0.535 |  |  |  |  |  |  |  | 
COC(=O)NC(C(=O)N1[C@@H]2C[C@@H]2C[C@H]1c1ncc(-c2ccc3c(c2)cc2n3C(c3cnc(C4CC4)s3)Oc3cc(-c4cnc([C@@H]5CCCN5C(=O)[C@@H](NC(=O)OC)C(C)C)[nH]4)cc(F)c3-2)[nH]1)C1C[C@@H](C)O[C@@H](C)C1 (single isomer, unassigned) [Compound 311] | 2 | 0.0019 | 2 | 0.003 | 0.011 |  |  |  |  |  |  |  | 
COC(=O)NC(C(=O)N1CCC[C@H]1c1ncc(-c2ccc3c(c2)cc2n3C(c3cnc(C)s3)Oc3cc(-c4cnc([C@@H]5CCCN5C(=O)[C@@H](NC(=O)OC)C(C)C)[nH]4)cc(F)c3-2)[nH]1)C1C[C@@H](C)O[C@@H](C)C1 (single isomer, unassigned) [Compound 30] | 2.8 | 0.0118 |  | 0.014 |  | 3 | 0.112 |  |  |  |  |  | 
COC(=O)NC(C(=O)N1CCC[C@H]1c1ncc(-c2ccc3c(c2)c(F)c2n3C(c3cnc(C4CC4)s3)Oc3cc(-c4cnc([C@@H]5CCCN5C(=O)[C@@H](NC(=O)OC)C(C)C)[nH]4)cc(F)c3-2)[nH]1)C1CCOC(C)(C)C1 (single isomer, unassigned) [Compound 72] |  |  |  |  |  | 2.4 | 0.099 | 2.9 | 0.006 | 0.005 |  |  | 
CCC(CC)c1ncc(C2Oc3cc(-c4cnc([C@@H]5CCCN5C(=O)[C@@H](NC(=O)OC)C(C)C)[nH]4)cc(F)c3-c3cc4cc(-c5cnc([C@@H]6CCCN6C(=O)C(NC(=O)OC)C6CCOC(C)(C)C6)[nH]5)ccc4n32)s1 (single isomer, unassigned) [Compound 444] |  | 0.005 |  | 0.007 | 0.038 | 3.8 |  | 2.2 |  |  |  |  | 
COC(=O)N[C@H](C(=O)N1CCC[C@H]1c1ncc(-c2cc(F)c3c(c2)OC(c2cnc(-c4ccc(OC(F)(F)F)cc4)s2)n2c-3cc3cc(-c4cnc([C@@H]5CCCN5C(=O)[C@@H](NC(=O)OC)C(C)C)[nH]4)ccc32)[nH]1)C(C)C (single isomer, unassigned) [Compound 77] | 3.5 | 0.0056 |  | 0.005 | 0.053 | 1 |  |  |  |  |  |  | 
COC(=O)NC(C(=O)N1CCC[C@H]1c1ncc(-c2ccc3c(c2)cc2n3C(c3cnc(CC(C)C)s3)Oc3cc(-c4cnc([C@@H]5CCCN5C(=O)[C@@H](NC(=O)OC)C(C)C)[nH]4)cc(F)c3-2)[nH]1)C1CCOC(C)(C)C1 (single isomer, unassigned) [Compound 544] | 3.1 | 0.005 |  | 0.006 | 0.051 | 3.6 |  |  |  |  |  |  | 
COC(=O)N[C@H](C(=O)N1CCC[C@H]1c1ncc(-c2cc(F)c3c(c2)OC(c2cnc(C4(C)CC4)s2)n2c-3cc3cc(-c4cnc([C@@H]5CCCN5C(=O)[C@@H](NC(=O)OC)C(C)C)[nH]4)ccc32)[nH]1)C(C)C (single isomer, unassigned) [Compound 511] |  | 0.049 | 8.7 | 0.095 |  |  | 0.847 | 9.7 |  |  |  |  | 
COC(=O)N[C@H](C(=O)N1CCC[C@H]1c1ncc(-c2cc(F)c3c(c2)OC(c2ncc(-c4ccc(F)cc4)s2)n2c-3cc3cc(-c4cnc([C@@H]5CCCN5C(=O)[C@@H](NC(=O)OC)C(C)C)[nH]4)ccc32)[nH]1)C(C)C (single isomer, unassigned) [Compound 34] | 2.2 | 0.0331 | 1 | 0.022 | 0.144 |  |  |  |  |  |  |  | 
CCc1ncc(C2Oc3cc(-c4cnc([C@@H]5CCCN5C(=O)[C@@H](NC(=O)OC)C(C)C)[nH]4)cc(F)c3-c3cc4cc(-c5cnc([C@@H]6C[C@H]7C[C@H]7N6C(=O)C(NC(=O)OC)C6CCOC(C)(C)C6)[nH]5)ccc4n32)s1 (single isomer, unassigned) [Compound 95] | 2.9 | 0.0369 | 5 | 0.085 | 0.328 |  |  |  |  |  |  |  | 
CCCOCc1ncc(C2Oc3cc(-c4cnc([C@@H]5CCCN5C(=O)[C@@H](NC(=O)OC)C(C)C)[nH]4)cc(F)c3-c3cc4cc(-c5cnc([C@@H]6CCCN6C(=O)[C@@H](NC(=O)OC)C(C)C)[nH]5)ccc4n32)s1 (single isomer, unassigned) [Compound 499] | 6.9 | 0.223 | 8.8 | 0.622 | 1.09 |  |  |  |  |  |  |  | 
COC(=O)N[C@H](C(=O)N1CCC[C@H]1c1ncc(-c2cc(F)c3c(c2)OC(c2cnc(C4CC4)s2)n2c-3cc3cc(-c4cnc([C@@H]5CCCN5C(=O)[C@@H](NC(=O)OC)C(C)C)[nH]4)ccc32)[nH]1)C(C)C (single isomer, unassigned) [Compound 10] | 1.4 | 0.0035 |  | 0.011 |  | 2 | 0.097 |  |  |  |  |  | 
COC(=O)NC(C(=O)N1[C@@H]2C[C@@H]2C[C@H]1c1ncc(-c2ccc3c(c2)cc2n3C(c3cnc(CC(C)C)s3)Oc3cc(-c4cnc([C@@H]5CCCN5C(=O)[C@@H](NC(=O)OC)C(C)C)[nH]4)cc(F)c3-2)[nH]1)C1C[C@@H](C)O[C@@H](C)C1 (single isomer, unassigned) [Compound 441] | 2.5 | 0.003 | 3.4 | 0.006 | 0.011 |  |  |  |  |  |  |  | 
COC(=O)N[C@H](C(=O)N1CCC[C@H]1c1ncc(-c2cc(F)c3c(c2)OC(c2cnc(C4CC4)s2)n2c-3c(F)c3cc(-c4cnc([C@@H]5CCCN5C(=O)[C@@H](NC(=O)OC)C5CCOCC5)[nH]4)ccc32)[nH]1)C(C)C (single isomer, unassigned) [Compound 41] |  | 0.126 |  | 0.04 | 1.01 | 2 |  | 1.7 |  |  |  |  | 
COC(=O)NC(C(=O)N1[C@@H]2C[C@@H]2C[C@H]1c1ncc(-c2ccc3c(c2)cc2n3C(c3cnc(C4CC4)s3)Oc3cc(-c4cnc([C@@H]5CCCN5C(=O)[C@@H](NC(=O)OC)C(C)C)[nH]4)cc(F)c3-2)[nH]1)C(C)(C)F (single isomer, unassigned) [Compound 27] |  | 0.0037 |  | 0.009 | 0.02 | 2 |  | 1.6 |  |  |  |  | 
COC(=O)NC(C(=O)N1CCC[C@H]1c1ncc(-c2ccc3c(c2)cc2n3C(c3cnc(C4CCC4)s3)Oc3cc(-c4cnc([C@@H]5CCCN5C(=O)[C@@H](NC(=O)OC)C(C)C)[nH]4)cc(F)c3-2)[nH]1)C1C[C@@H](C)O[C@@H](C)C1 (single isomer, unassigned) [Compound 66] |  | 0.0021 |  | 0.003 | 0.018 | 2 |  | 2.3 |  |  |  |  | 
COC(=O)NC(C(=O)N1[C@@H]2C[C@@H]2C[C@H]1c1ncc(-c2ccc3c(c2)cc2n3C(c3cnc(CC(C)C)s3)Oc3cc(-c4cnc([C@@H]5CCCN5C(=O)[C@@H](NC(=O)OC)C(C)C)[nH]4)cc(F)c3-2)[nH]1)C1CCOC(C)(C)C1 (single isomer, unassigned) [Compound 438] | 3.6 |  | 3.7 |  |  |  |  |  |  |  | 0.004 | 0.006 | 0.03
COC(=O)N[C@H](C(=O)N1CCC[C@H]1c1ncc(-c2cc(F)c3c(c2)OC(c2cnc(C(C)(C)C)s2)n2c-3cc3cc(-c4cnc([C@@H]5CCCN5C(=O)[C@@H](NC(=O)OC)C(C)C)[nH]4)ccc32)[nH]1)C(C)C (mixture of isomers) [Compound 418] |  |  |  |  |  | 3 | 0.255 | 2.3 | 0.0083 | 0.095 |  |  | 
COC(=O)NC(C(=O)N1CCC[C@H]1c1ncc(-c2ccc3c(c2)cc2n3C(c3cnc(C4CC4)s3)Oc3cc(-c4cnc([C@@H]5CCCN5C(=O)[C@@H](NC(=O)OC)C(C)C)[nH]4)cc(C)c3-2)[nH]1)C1C[C@@H](C)O[C@@H](C)C1 (single isomer, unassigned) [Compound 212] |  |  |  |  |  | 8 | 0.499 | 6.8 | 0.0354 | 0.007 |  |  | 
COC(=O)N[C@H](C(=O)N1CCC[C@H]1c1ncc(-c2cc(F)c3c(c2)OC(c2ncc(-c4ccc(C#N)cc4)s2)n2c-3cc3cc(-c4cnc([C@@H]5CCCN5C(=O)[C@@H](NC(=O)OC)C(C)C)[nH]4)ccc32)[nH]1)C(C)C (single isomer, unassigned) [Compound 43] |  | 0.0081 |  | 0.004 | 0.077 | 2 |  | 2.3 |  |  |  |  | 
